One series has as its system colorectal cancer. As to the kind of experiment: Tumor therapy of colorectal cancer patient with bsMAb, DTPA-enzyme conjugates and CPT-11. It is filed as in vivo, human. The note with it: then standard dose CPT-11. The protocol: A patient with colorectal cancer is given an injection of the bsMAb comprised of an […]-14 cross-linked with an anti-DTPA Fab' fragment, prepared according to Example 3. After 48 h to allow for maximum accretion in tumors, an amount of galactose-[…], prepared according to Example 4, sufficient to clear nearly all non-target-bound MN-14-IgG ×734-Fab' from the circulation is administered. This amount is between 5 and 15 times the amount of primary bsMAb remaining in circulation at the time-point specified. Three hours after administration of the galactose-[…], a tumor-saturating amount of a mixture of the DTPA-CE and […] conjugates is given, and allowed to clear circulation and normal tissues. […] A patient with colorectal cancer is given an injection of the bsMAb as in Example 6. After 48 h to allow for maximum accretion in tumors, an excess amount of same mixture of the DTPA-CE and DTPA-glucuronidase conjugates as in Example 6 is given. Three hours later an amount of galactose-[…] sufficient to clear nearly all non-target-bound […]-IgG ×734-Fab'-DTPA-enzymes from the circulation is administered. This amount is between 5 and 15 times the amount of primary bsMAb complexes remaining in circulation at the time-point specified.

For series [1], the target named is T1, human beta-D-glucuronidase (Homo sapiens, UniProt P08236).
T1 sequence (P08236 23-651): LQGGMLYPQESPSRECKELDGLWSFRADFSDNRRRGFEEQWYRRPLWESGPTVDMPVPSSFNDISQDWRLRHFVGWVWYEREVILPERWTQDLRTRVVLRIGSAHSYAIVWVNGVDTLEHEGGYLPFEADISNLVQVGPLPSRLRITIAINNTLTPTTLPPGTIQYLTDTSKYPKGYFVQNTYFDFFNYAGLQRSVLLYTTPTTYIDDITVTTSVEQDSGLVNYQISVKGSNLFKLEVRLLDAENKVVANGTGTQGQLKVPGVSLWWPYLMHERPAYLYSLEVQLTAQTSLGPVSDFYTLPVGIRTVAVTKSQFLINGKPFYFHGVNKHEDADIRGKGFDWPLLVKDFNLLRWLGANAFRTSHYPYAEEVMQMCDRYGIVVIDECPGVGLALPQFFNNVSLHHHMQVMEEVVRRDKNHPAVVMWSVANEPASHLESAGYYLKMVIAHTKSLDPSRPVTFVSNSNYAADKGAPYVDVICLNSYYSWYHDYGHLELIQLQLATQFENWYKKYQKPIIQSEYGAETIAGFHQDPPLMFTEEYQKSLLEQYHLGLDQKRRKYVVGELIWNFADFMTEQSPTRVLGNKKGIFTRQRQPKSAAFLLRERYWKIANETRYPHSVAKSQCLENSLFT
The note with it: cited from earlier work.

The conditions of series [2]: pretreatment of rats; cited from earlier work.
Series [3] deals with uridine diphosphate glucuronosyl transferase (UDP-GT). The conditions noted are these: pretreatment of rats; cited from earlier work.
The next series relates to lymphoma. Description: Therapy of lymphoma in a human patient after pretargeting of enzyme conjugates. It is filed as in vivo. The note with it: 10 mg i.v. after pretargeted Fab′-glucuronidase and esterase conjugates; compared to 10 mg epirubicin prior to targeting. The protocol:
A human patient suffering from lymphoma is infused intravenously with a sterile, pyrogen-free PBS solution containing 5 mg each of the 1-13 1-labeled anti-lymphoma Fab′-glucuronidase and esterase conjugates prepared according to Example 1 hereof.
The patient is then infused intravenously with a sterile, pyrogen-free PBS solution containing 10 mg of epirubicin methyl ester.

As for `CCc1c2c(nc3ccc(OC(=O)N4CCC(N5CCCCC5)CC4)cc13)-c1cc3c(c(=O)n1C2)COC(=O)[C@]3(O)CC` [CPT-11, irinotecan], the effect on tumors entry was “destroying the tumors” in the series on colorectal cancer (Example 6: bsMAb, galactose-W12 clearing, then DTPA-enzyme conjugates) and “destroying said tumors” with colorectal cancer (Example 7: bsMAb, DTPA-enzyme conjugates, then galactose-W12 clearing). As to `COc1cccc2c1C(=O)c1c(O)c3c(c(O)c1C2=O)C[C@@](O)(C(=O)CO)C[C@@H]3O[C@H]1C[C@H](N)[C@@H](O)[C@H](C)O1` [epirubicin], the “substrate for human beta-D-glucuronidase” value in series [1] was “substrate for human beta-D-glucuronidase”.

Turning to `CCCC(CCC)C(=O)O` [valproic acid], the “AUC for SN-38 from subsequently-administered CPT-11” value in series [2] was 270%. In series [3], the “formation of SN-38G” value is listed as “inhibited the formation of SN-38G”. As for epirubicin methyl ester, the “reduction in the lymphoma by radioimmunodetection” value in the series on lymphoma is “significant reduction in the lymphoma”.

The record behind these values is patent US7470429B2, “Methods and compositions for increasing the target-specific toxicity of a chemotherapy drug” (priority 1998, dated 2008).
